According to patent US20180263985A1, “MODULATORS OF TOLL-LIKE RECEPTORS FOR THE TREATMENT OF HIV” (Gilead Sciences, Inc., priority 2015, published 2018):

Tested on: PBMC cultures from HIV-1 infected subjects on cART
Test: Induced cytokines and chemokines in PBMC cultures, multiplexed xMAP Luminex, geometric mean values
Format: cell-based, human
Details: for GRO-α Fold / Granzyme B Fold / I-TAC Fold / IFN-α Fold / IFN-γ Fold / IL-1RA Fold / IL-1β Fold / IL-6 Fold / IL-8 Fold / IL-10 Fold / IL-18 Fold / IL-23 Fold / IP-10 Fold / MCP-1 Fold / MIP-1α Fold / MIP-1β Fold / MIP-3α Fold / MMP-1 Fold / TNF-α Fold / IL-12p70 Fold: day 2, 4 subjects
Protocol: To further characterize the immune modulatory effect of TLR8 agonists in cells from HIV-infected subjects, the production of secreted cytokines and chemokines was measured in PBMCs from 4 HIV-infected subjects on suppressive cART (anonymized participant IDs 180-183). PBMCs were purified, as described in Example 121, and immediately added to tissue culture plates pre-equilibrated at 37° C. with media containing DMSO (vehicle control) or with the TLR8 modulating compound Example 15 at concentrations ranging from 1.0 nM to 10.0 μM. On day 2 after treatment, cell-free culture supernatants were collected and frozen at −80 C for subsequent analysis. Frozen supernatants were thawed at room temperature, and the indicated cytokines and chemokines were quantified with a custom multiplexed xMAP Luminex® assay following the manufacturer's instructions (Thermo Fisher Scientific Inc., Grand Island, N.Y., custom-designed kit).
Data are expressed as geometric mean cytokine values (pg/ml) obtained from 4 subjects' PBMCs. Geometric mean fold-activation from three independent incubation samples for each condition. Fold (fold-activation) is calculated as a ratio of the concentration of cytokine detected in cell culture supernatants from agonist treated samples relative to DMSO treated samples

[1] = 1.0 nM to 10.0 μM, not induced >2-fold

## CCCC[C@H](CO)Nc1nc(N)nc2cccnc12 [Example 15]
[1]
  IFN-ω induction compared to DMSO control: ≤ 2 fold
  IL-2 induction compared to DMSO control: ≤ 2 fold
  IL-4 induction compared to DMSO control: ≤ 2 fold
  IL-5 induction compared to DMSO control: ≤ 2 fold
  IL-7 induction compared to DMSO control: ≤ 2 fold
  IL-15 induction compared to DMSO control: ≤ 2 fold
  IL-17A induction compared to DMSO control: ≤ 2 fold
  IL-21 induction compared to DMSO control: ≤ 2 fold
  IL-27 induction compared to DMSO control: ≤ 2 fold
  IL-29 induction compared to DMSO control: ≤ 2 fold
1 nM vs DMSO
  GRO-α Fold: 1 fold
  Granzyme B Fold: <1 fold
  I-TAC Fold: 2 fold
  IFN-α Fold: 2 fold
  IFN-γ Fold: 2 fold
  IL-1RA Fold: 3 fold
  IL-1β Fold: 2 fold
  IL-6 Fold: 1 fold
  IL-8 Fold: 2 fold
  IL-10 Fold: 1 fold
  IL-18 Fold: 1 fold
  IL-23 Fold: 2 fold
  IP-10 Fold: 3 fold
  MCP-1 Fold: 3 fold
  MIP-1α Fold: 5 fold
  MIP-1β Fold: 2 fold
  MIP-3α Fold: 1 fold
  MMP-1 Fold: 1 fold
10 nM vs DMSO
  GRO-α Fold: 1 fold
  Granzyme B Fold: <1 fold
  I-TAC Fold: 1 fold
  IFN-α Fold: 2 fold
  IFN-γ Fold: 2 fold
  IL-1RA Fold: 1 fold
  IL-1β Fold: 1 fold
  IL-6 Fold: 1 fold
  IL-8 Fold: 1 fold
  IL-10 Fold: 1 fold
  IL-18 Fold: 2 fold
  IL-23 Fold: 1 fold
  IP-10 Fold: 1 fold
  MCP-1 Fold: 1 fold
  MIP-1α Fold: 1 fold
  MIP-1β Fold: 1 fold
  MIP-3α Fold: 1 fold
  MMP-1 Fold: 1 fold
  TNF-α Fold: 2 fold
100 nM vs DMSO
  GRO-α Fold: 20 fold
  Granzyme B Fold: <1 fold
  I-TAC Fold: 1 fold
  IFN-α Fold: 1 fold
  IFN-γ Fold: 2 fold
  IL-1RA Fold: 12 fold
  IL-1β Fold: 45 fold
  IL-6 Fold: 57 fold
  IL-8 Fold: 8 fold
  IL-10 Fold: 145 fold
  IL-12p70 Fold: 2 fold
  IL-18 Fold: 1 fold
  IL-23 Fold: 2 fold
  IP-10 Fold: 1 fold
  MCP-1 Fold: 33 fold
  MIP-1α Fold: 3 fold
  MIP-1β Fold: 1 fold
  MIP-3α Fold: 1 fold
  MMP-1 Fold: 2 fold
  TNF-α Fold: 6 fold
1000 nM vs DMSO
  GRO-α Fold: 18 fold
  Granzyme B Fold: 4 fold
  I-TAC Fold: 2 fold
  IFN-α Fold: 3 fold
  IFN-γ Fold: 228 fold
  IL-1RA Fold: 46 fold
  IL-1β Fold: 1578 fold
  IL-6 Fold: 290 fold
  IL-8 Fold: 5 fold
  IL-10 Fold: 219 fold
  IL-12p70 Fold: 175 fold
  IL-18 Fold: 11 fold
  IL-23 Fold: 8 fold
  IP-10 Fold: 3 fold
  MCP-1 Fold: 22 fold
  MIP-1α Fold: 374 fold
  MIP-1β Fold: 340 fold
  MIP-3α Fold: 42 fold
  MMP-1 Fold: 3 fold
  TNF-α Fold: 1661 fold
3000 nM vs DMSO
  GRO-α Fold: 18 fold
  Granzyme B Fold: 4 fold
  I-TAC Fold: 2 fold
  IFN-α Fold: 3 fold
  IFN-γ Fold: 143 fold
  IL-1RA Fold: 25 fold
  IL-1β Fold: 1767 fold
  IL-6 Fold: 195 fold
  IL-8 Fold: 4 fold
  IL-10 Fold: 279 fold
  IL-12p70 Fold: 127 fold
  IL-18 Fold: 18 fold
  IL-23 Fold: 19 fold
  IP-10 Fold: 3 fold
  MCP-1 Fold: 25 fold
  MIP-1α Fold: 421 fold
  MIP-1β Fold: 240 fold
  MIP-3α Fold: 82 fold
  MMP-1 Fold: 3 fold
  TNF-α Fold: 3051 fold
10000 nM vs DMSO
  GRO-α Fold: 19 fold
  Granzyme B Fold: 3 fold
  I-TAC Fold: 1 fold
  IFN-α Fold: 2 fold
  IFN-γ Fold: 59 fold
  IL-1RA Fold: 25 fold
  IL-1β Fold: 2204 fold
  IL-6 Fold: 241 fold
  IL-8 Fold: 4 fold
  IL-10 Fold: 304 fold
  IL-12p70 Fold: 38 fold
  IL-18 Fold: 13 fold
  IL-23 Fold: 16 fold
  IP-10 Fold: 2 fold
  MCP-1 Fold: 27 fold
  MIP-1α Fold: 487 fold
  MIP-1β Fold: 196 fold
  MIP-3α Fold: 65 fold
  MMP-1 Fold: 8 fold
  TNF-α Fold: 1096 fold
